In patent US11040035B2, “3-oxo-2,6-diphenyl-2,3-dihydropyridazine-4-carboxamides” (BAYER PHARMA AKTIENGESELLSCHAFT, priority 2016, dated 2021):

Legend:
AHR [1] = molecular target: T1, AHR (Homo sapiens, UniProt P35869); experiment: In vitro assay 2: agonism in human cell line (transactivation assay)
T1 sequence (P35869 11-848): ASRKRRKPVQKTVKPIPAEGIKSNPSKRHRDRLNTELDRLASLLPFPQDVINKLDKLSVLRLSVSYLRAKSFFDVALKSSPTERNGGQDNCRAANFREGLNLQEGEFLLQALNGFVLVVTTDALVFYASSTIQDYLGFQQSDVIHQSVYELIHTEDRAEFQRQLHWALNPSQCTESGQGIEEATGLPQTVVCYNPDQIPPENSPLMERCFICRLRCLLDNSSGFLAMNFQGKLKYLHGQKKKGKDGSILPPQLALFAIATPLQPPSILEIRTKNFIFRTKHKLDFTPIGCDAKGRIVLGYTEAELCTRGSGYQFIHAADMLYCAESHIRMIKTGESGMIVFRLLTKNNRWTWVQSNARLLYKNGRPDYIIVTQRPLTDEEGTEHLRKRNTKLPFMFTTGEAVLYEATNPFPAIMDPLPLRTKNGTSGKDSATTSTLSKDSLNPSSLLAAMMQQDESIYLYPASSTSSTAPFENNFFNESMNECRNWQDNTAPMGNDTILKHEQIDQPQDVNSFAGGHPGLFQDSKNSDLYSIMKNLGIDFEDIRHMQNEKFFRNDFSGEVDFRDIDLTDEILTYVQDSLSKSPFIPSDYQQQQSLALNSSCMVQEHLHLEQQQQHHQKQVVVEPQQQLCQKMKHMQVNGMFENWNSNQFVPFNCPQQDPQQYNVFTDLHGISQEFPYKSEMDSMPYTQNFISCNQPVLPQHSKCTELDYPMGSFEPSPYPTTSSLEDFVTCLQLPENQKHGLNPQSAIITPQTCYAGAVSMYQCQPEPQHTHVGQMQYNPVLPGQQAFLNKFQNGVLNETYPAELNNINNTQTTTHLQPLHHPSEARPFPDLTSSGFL

AHR [2] = molecular target: T1, AHR; experiment: In vitro assay 1: antagonism in human cell line (transactivation assay, kynurenic acid prestimulated); settings: Assay 1: AHR-luc Hum Antagonism IC50 [M], 150 μM kynurenic acid, 20 hours, firefly luciferase
[3] = Assay 2: AHR-luc Hum Agonism IC50 [M], no kynurenic acid, 20 hours, firefly luciferase
[4] = read-out: Assay 2: AHR-luc Hum Agonism IC50, no kynurenic acid, 20 hours, firefly luciferase

SMILES	IC50 (AHR [1]; [3])	IC50 (AHR [2])	IC50 (AHR [1]; [4])
CCC(CC)C(O)CNC(=O)c1cc(-c2ccc(Cl)cc2)nn(-c2cccc(F)c2)c1=O (racemic) [Example 233, 6-(4-Chlorophenyl)-N-[(2RS)-3-ethyl-2-hydroxypentyl]-2-(3-fluorophenyl)-3-oxo-2,3-dihydropyridazine-4-carboxamide]	> 2e-05 M	1.72e-07 M	–
CC(C)(O)CCNC(=O)c1cc(-c2ccc(Cl)cc2)nn(-c2cccc(F)c2)c1=O [Example 321, 6-(4-chlorophenyl)-2-(3-fluorophenyl)-N-(3-hydroxy-3-methylbutyl)-3-oxo-2,3-dihydropyridazine-4-carboxamide]	> 2e-05 M	2.64e-07 M	–
Cc1ccc(-c2cc(C(=O)NCC(C)O)c(=O)n(-c3cccc(F)c3)n2)cc1 (single isomer, unassigned; enantiomer 2) [Example 15, 2-(3-Fluorophenyl)-N-(2-hydroxypropyl)-6-(4-methylphenyl)-3-oxo-2,3-dihydropyridazine-4-carboxamide, Enantiomer 2]	–	2.62e-07 M	> 2e-05 M
CC(C)(O)C(NC(=O)c1cc(-c2ccc(Cl)cc2)nn(-c2cccc(F)c2)c1=O)C(F)(F)F (single isomer, unassigned) [Example 278, 6-(4-Chlorophenyl)-2-(3-fluorophenyl)-3-oxo-N-(1,1,1-trifluoro-3-hydroxy-3-methylbutan-2-yl)-2,3-dihydropyridazine-4-carboxamide]	> 2e-05 M	2.05e-07 M	–
O=C(NCC1(O)CCCC1)c1cc(-c2ccc(Cl)cc2)nn(-c2cccc(F)c2)c1=O [Example 326, 6-(4-chlorophenyl)-2-(3-fluorophenyl)-N-[(1-hydroxycyclopentyl)methyl]-3-oxo-2,3-dihydropyridazine-4-carboxamide]	> 2e-05 M	6.47e-08 M	–
C[C@@H](O)CNC(=O)c1cc(-c2ccc(Cl)cc2)nn(-c2cccc(F)c2)c1=O [Example 35, 6-(4-Chlorophenyl)-2-(3-fluorophenyl)-N-[(2R)-2-hydroxypropyl]-3-oxo-2,3-dihydropyridazine-4-carboxamide]	> 2e-05 M	1.92e-07 M	–
O=C(NC(CO)C1CCC1)c1cc(-c2ccc(Cl)cc2)nn(-c2cccc(F)c2)c1=O (single isomer, unassigned; (+)) [Example 210, (+)-6-(4-Chlorophenyl)-N-(1-cyclobutyl-2-hydroxyethyl)-2-(3-fluorophenyl)-3-oxo-2,3-dihydropyridazine-4-carboxamide]	> 2e-05 M	4.12e-07 M	–
O=C(NC(CCO)C(F)(F)F)c1cc(-c2ccc(Cl)cc2)nn(-c2cccc(F)c2)c1=O (single isomer, unassigned; (-)) [Example 342, (−)-6-(4-chlorophenyl)-2-(3-fluorophenyl)-3-oxo-N-(1,1,1-trifluoro-4-hydroxybutan-2-yl)-2,3-dihydropyridazine-4-carboxamide]	> 2e-05 M	4.46e-07 M	–
C[C@@H](CO)NC(=O)c1cc(-c2ccc(Cl)cc2)nn(-c2cccc(Cl)c2)c1=O [Example 66, 2-(3-Chlorophenyl)-6-(4-chlorophenyl)-N-[(2S)-1-hydroxypropan-2-yl]-3-oxo-2,3-dihydropyridazine-4-carboxamide]	> 2e-05 M	1.65e-07 M	–
O=C(NC(CO)CO)c1cc(-c2ccc(Cl)cc2)nn(-c2cccc(F)c2)c1=O [Example 228, 6-(4-Chlorophenyl)-N-(1,3-dihydroxypropan-2-yl)-2-(3-fluorophenyl)-3-oxo-2,3-dihydropyridazine-4-carboxamide]	> 2e-05 M	3.35e-07 M	–
COC(=O)C(C)(C)CNC(=O)c1cc(-c2ccc(Cl)cc2)nn(-c2cccc(F)c2)c1=O [Example 398, methyl 3-({[6-(4-chlorophenyl)-2-(3-fluorophenyl)-3-oxo-2,3-dihydropyridazin-4-yl]carbonyl}amino)-2,2-dimethylpropanoate]	> 2e-05 M	4.2e-07 M	–
COc1ccc(-c2cc(C(=O)NCC(O)C(F)(F)F)c(=O)n(-c3cccc(F)c3)n2)cc1 (stereo not drawn) [Example 126, 2-(3-Fluorophenyl)-6-(4-methoxyphenyl)-3-oxo-N-(3,3,3-trifluoro-2-hydroxypropyl)-2,3-dihydropyridazine-4-carboxamide]	> 2e-05 M	5.13e-08 M	–
COCC(O)CNC(=O)c1cc(-c2ccc(Cl)cc2)nn(-c2cccc(F)c2)c1=O (stereo not drawn) [Example 31, 6-(4-Chlorophenyl)-2-(3-fluorophenyl)-N-(2-hydroxy-3-methoxypropyl)-3-oxo-2,3-dihydropyridazine-4-carboxamide]	> 2e-05 M	1.61e-07 M	–
O=C(NCC(O)C1CC1)c1cc(-c2ccc(Cl)cc2)nn(-c2cccc(F)c2)c1=O (single isomer, unassigned; (-)) [Example 191, (−)-6-(4-Chlorophenyl)-N-(2-cyclopropyl-2-hydroxyethyl)-2-(3-fluorophenyl)-3-oxo-2,3-dihydropyridazine-4-carboxamide]	> 2e-05 M	1.1e-07 M	–
O=C(NCC1(O)CC1)c1cc(-c2ccc(Cl)cc2)nn(-c2cccc(F)c2)c1=O [Example 196, 6-(4-Chlorophenyl)-2-(3-fluorophenyl)-N-[(1-hydroxycyclopropyl)methyl]-3-oxo-2,3-dihydropyridazine-4-carboxamide]	> 2e-05 M	1.04e-07 M	–
O=C(NC(CO)C1CCOC1)c1cc(-c2ccc(Cl)cc2)nn(-c2cc(Cl)cc(Cl)c2)c1=O (stereo not drawn) [Example 310, 6-(4-Chlorophenyl)-2-(3,5-dichlorophenyl)-N-[2-hydroxy-1-(tetrahydrofuran-3-yl)ethyl]-3-oxo-2,3-dihydropyridazine-4-carboxamide]	> 2e-05 M	4.34e-07 M	–

Compounds with a lower IC50 (AHR [2]), results first:

IC50 (AHR [1]; [3])	IC50 (AHR [2])	IC50 (AHR [1]; [4])	SMILES
–	1.49e-08 M	> 2e-05 M	O=C(NC(CCO)C(F)(F)F)c1cc(-c2ccc(Cl)cc2)nn(-c2cccc(F)c2)c1=O (single isomer, unassigned; (+)) [Example 343, (+)-6-(4-chlorophenyl)-2-(3-fluorophenyl)-3-oxo-N-(1,1,1-trifluoro-4-hydroxybutan-2-yl)-2,3-dihydropyridazine-4-carboxamide]
> 2e-05 M	1.99e-08 M	–	O=C(NCC(O)C(F)(F)F)c1cc(-c2ccc(Cl)cc2)nn(-c2cc(F)cc(F)c2)c1=O (stereo not drawn) [Example 44, 6-(4-Chlorophenyl)-2-(3,5-difluorophenyl)-3-oxo-N-(3,3,3-trifluoro-2-hydroxypropyl)-2,3-dihydropyridazine-4-carboxamide]
> 2e-05 M	1e-08 M	–	C[C@H](NC(=O)c1cc(-c2ccc(C(F)(F)F)cc2)nn(-c2cccc(F)c2)c1=O)C(C)(C)O [Example 391, 2-(3-fluorophenyl)-N-[(2S)-3-hydroxy-3-methylbutan-2-yl]-3-oxo-6-[4-(trifluoromethyl)phenyl]-2,3-dihydropyridazine-4-carboxamide]
> 2e-05 M	4.31e-08 M	–	O=C(N[C@H]1COCC[C@H]1O)c1cc(-c2ccc(Cl)cc2)nn(-c2cccc(F)c2)c1=O [Example 273, 1,5-Anhydro-2-({[6-(4-chlorophenyl)-2-(3-fluorophenyl)-3-oxo-2,3-dihydropyridazin-4-yl]carbonyl}amino)-2,4-dideoxy-D-erythro-pentitol]
> 2e-05 M	1.54e-08 M	–	O=C(NCC(O)C(F)(F)F)c1cc(-c2ccc(C(F)F)cc2)nn(-c2cccc(F)c2)c1=O (stereo not drawn) [Example 94, 6-[4-(Difluoromethyl)phenyl]-2-(3-fluorophenyl)-3-oxo-N-(3,3,3-trifluoro-2-hydroxypropyl)-2,3-dihydropyridazine-4-carboxamide]
–	1.39e-08 M	> 2e-05 M	CC(NC(=O)c1cc(-c2ccc(Cl)cc2)nn(-c2cccc(F)c2)c1=O)C(O)CO (single isomer, unassigned) [Example 360, 6-(4-chlorophenyl)-N-(3,4-dihydroxybutan-2-yl)-2-(3-fluorophenyl)-3-oxo-2,3-dihydropyridazine-4-carboxamide]
> 2e-05 M	3.18e-08 M	–	CC[C@@H](CO)NC(=O)c1cc(-c2ccc(OC)cc2)nn(-c2cccc(F)c2)c1=O [Example 298, 2-(3-Fluorophenyl)-N-[(2S)-1-hydroxybutan-2-yl]-6-(4-methoxyphenyl)-3-oxo-2,3-dihydropyridazine-4-carboxamide]
> 2e-05 M	1.8e-08 M	–	COc1ccc(-c2cc(C(=O)N[C@H](CO)C(C)C)c(=O)n(-c3cccc(F)c3)n2)cc1 [Example 113, 2-(3-Fluorophenyl)-N-[(2S)-1-hydroxy-3-methylbutan-2-yl]-6-(4-methoxyphenyl)-3-oxo-2,3-dihydropyridazine-4-carboxamide]
